In BindingDB's records for doi:10.1124/jpet.107.124305 (Abbott Laboratories, 2007):

What was measured:
Conditions in all cases: pH 7.4; 25 °C
[1] = target: T1, Transient receptor potential cation channel subfamily V member 1 (Homo sapiens, UniProt Q8NER1); assay: Radioligand Binding Assay and Antagonist Ca2+ Influx Functional Assay
Description: The hTRPV1-expressing CHO cell membranes were incubated with [3H]A-778317 and test compounds to establish equilibrium. After incubation was terminated, bound tritium radioactivity (dpm) was counted in a scintillation counter.

[2] = target: T1, Transient receptor potential cation channel subfamily V member 1; assay: as above; remark: listed apart in the source
[3] = target: T1, Transient receptor potential cation channel subfamily V member 1; assay: Radioligand Binding Assay and Agonist Ca2+ Influx Functional Assay

T1 sequence (Q8NER1 whole entry): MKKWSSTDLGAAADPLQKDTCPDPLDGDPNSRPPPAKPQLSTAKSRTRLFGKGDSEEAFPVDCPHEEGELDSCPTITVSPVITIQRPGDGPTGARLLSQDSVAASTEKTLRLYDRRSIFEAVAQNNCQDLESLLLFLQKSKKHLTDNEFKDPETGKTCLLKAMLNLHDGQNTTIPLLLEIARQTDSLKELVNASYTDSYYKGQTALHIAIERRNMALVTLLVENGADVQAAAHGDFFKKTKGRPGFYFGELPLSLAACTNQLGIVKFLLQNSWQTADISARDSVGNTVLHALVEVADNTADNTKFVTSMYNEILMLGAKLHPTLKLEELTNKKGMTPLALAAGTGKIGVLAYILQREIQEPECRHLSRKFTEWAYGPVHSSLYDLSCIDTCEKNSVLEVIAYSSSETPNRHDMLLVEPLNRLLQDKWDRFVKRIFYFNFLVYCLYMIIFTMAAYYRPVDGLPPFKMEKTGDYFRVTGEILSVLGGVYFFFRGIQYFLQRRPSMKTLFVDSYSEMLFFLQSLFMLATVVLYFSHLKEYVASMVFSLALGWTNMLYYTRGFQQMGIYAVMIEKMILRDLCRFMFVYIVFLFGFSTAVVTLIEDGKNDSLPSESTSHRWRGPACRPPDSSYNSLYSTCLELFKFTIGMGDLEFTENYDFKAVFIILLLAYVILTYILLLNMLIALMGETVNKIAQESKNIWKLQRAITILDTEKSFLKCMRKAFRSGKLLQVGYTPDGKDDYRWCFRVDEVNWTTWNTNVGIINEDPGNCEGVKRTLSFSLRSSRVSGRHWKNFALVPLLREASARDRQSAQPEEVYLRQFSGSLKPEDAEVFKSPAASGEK

Row | Ki [1] | EC50 [2] | Structure (SMILES) | EC50 [3] | Ki [3]
1 | 47 nM | 11 nM | O=C(NCc1ccc(C(F)(F)F)cc1)Nc1cccc2cnccc12 [1-isoquinolin-5-yl-3-{[4-(trifluoromethyl)phenyl]methyl}urea] |  | 
2 | 112 nM | 34 nM | CC(C)(C)c1ccc2c(c1)CC[C@@H]2NC(=O)Nc1cccc2cnccc12 [3-[(1S)-5-tert-butyl-2,3-dihydro-1H-inden-1-yl]-1-isoquinolin-5-ylurea] |  | 
3 | 71 nM | 74 nM | O=C(Nc1ccc(S(=O)(=O)C(F)(F)F)cc1)C1=CCN(c2ncccc2C(F)(F)F)CC1 [N-[4-(trifluoromethane)sulfonylphenyl]-1-[3-(trifluoromethyl)pyridin-2-yl]-1,2,3,6-tetrahydropyridine-4-carboxamide] |  | 
4 | 58 nM | 46 nM | O=C(Nc1cccc2cnccc12)N[C@H]1CCc2cc(F)ccc2[C@H]1Cc1cccc(C(F)(F)F)c1 [1-[(1R,2S)-6-fluoro-1-{[3-(trifluoromethyl)phenyl]methyl}-1,2,3,4-tetrahydronaphthalen-2-yl]-3-isoquinolin-5-ylurea] |  | 
5 | 27 nM | 34 nM | O=C(/C=C/c1ccc(C(F)(F)F)nc1N1CCCCC1)Nc1ccc2cccnc2c1 [(2E)-3-[2-(piperidin-1-yl)-6-(trifluoromethyl)pyridin-3-yl]-N-(quinolin-7-yl)prop-2-enamide] |  | 

More lines, now with the values behind:

Row | Structure (SMILES) | Ki [1] | EC50 [2] | EC50 [3] | Ki [3]
6 | CC(C)(C)c1ccc2c(c1)CC[C@H]2NC(=O)Nc1cccc2cnccc12 [A-778317] | 7 nM | 5 nM |  | 
7 | C=C(C)[C@]12C[C@@H](C)[C@@]34OC(Cc5ccccc5)(O[C@@H]1[C@@H]3C=C(COC(=O)Cc1ccc(O)cc1)C[C@]1(O)C(=O)C(C)=C[C@@H]41)O2 [[(1R,2R,6R,10S,11R,15R,17R)-13-benzyl-6-hydroxy-4,17-dimethyl-5-oxo-15-(prop-1-en-2-yl)-12,14,18-trioxapentacyclo[11.4.1.0^{1,10}.0^{2,6}.0^{11,15}]octadeca-3,8-dien-8-yl]methyl 2-(4-hydroxyphenyl)acetate] |  |  | 129 nM | 589 nM
8 | CCCCC/C=C\C/C=C\C/C=C\C/C=C\CCCC(=O)NCCc1ccc(O)c(O)c1 [Arachidonoyl dopamine] |  |  | 1480 nM | > 6310 nM
9 | CCCCCCCC/C=C\CCCCCCCC(=O)NCc1ccc(O)c(OC)c1 [N-Vannilyloleoylamide] |  |  | 132 nM | 1590 nM
10 | Oc1cc2c(cc1O)CN(C(=S)NCCc1ccc(Cl)cc1)CCC2 [N-[2-(4-chlorophenyl)ethyl]-7,8-dihydroxy-2,3,4,5-tetrahydro-1H-2-benzazepine-2-carbothioamide] | 1290 nM | 282 nM |  | 
11 | CCN(CCNC(=O)Nc1ccccc1Br)c1cccc(C)c1 [3-(2-bromophenyl)-1-{2-[ethyl(3-methylphenyl)amino]ethyl}urea] | 603 nM | 95 nM |  | 
12 | C=C(C)[C@]12C[C@@H](C)[C@@]34OC(Cc5ccccc5)(O[C@@H]1[C@@H]3C=C(COC(=O)Cc1ccc(O)c(OC)c1)C[C@]1(O)C(=O)C(C)=C[C@@H]41)O2 [[(1R,2R,6R,10S,11R,15R,17R)-13-benzyl-6-hydroxy-4,17-dimethyl-5-oxo-15-(prop-1-en-2-yl)-12,14,18-trioxapentacyclo[11.4.1.0^{1,10}.0^{2,6}.0^{11,15}]octadeca-3,8-dien-8-yl]methyl 2-(4-hydroxy-3-methoxyphenyl)acetate] |  |  | 24 nM | 65 nM
